Results as given in patent US12479841B2, “Anthelmintic compounds comprising azaindoles structure” (Intervet Inc., priority 2019, dated 2025).

Tests used:
[1] = system: Oesophagostomum dentatum (nodular worm of swine), larval stage 3; assay: In vitro assay: Oesophagostomum dentatum L3 larvae, minimum effective concentration; settings: in Sus scrofa, read-out: MEC (minimum effective concentration) against Oesophagostomum dentatum L3, L3 larvae, 20 per well, microscopic examination, concentration at which at least one larva shows mortality, change in motility or development
Text: (§1) In Vitro Assay: Ascaridia galli and Oesophagostomum dentatum
(§2) Ascaridia galli (intestinal roundworm of chicken), larval stage 3 (“L3”); and Oesophagostomum dentatum (nodular worm of swine), larval stages 3 and 4 (respectively “L3” and “L4”) where suspended in a nutrient medium and distributed to 96 well plates with 20 larvae per well. The wells were spiked with DMSO solutions of the compounds with declining concentration.

[2] = system: Oesophagostomum dentatum (nodular worm of swine), larval stage 4; assay: In vitro assay: Oesophagostomum dentatum L4 larvae, minimum effective concentration; settings: in Sus scrofa, read-out: MEC (minimum effective concentration) against Oesophagostomum dentatum L4, L4 larvae, 20 per well, microscopic examination, concentration at which at least one larva shows mortality, change in motility or development
Text: as §1, §2

[3] = target: human Maxi K channel (BK channel), KCNMA1 (KCa1.1) and beta1 (KCNMB1) subunits (Homo sapiens, UniProt Q12791)
Experimental: In Vitro Assay: Agonistic Activity at the Human Maxi K Channel (BK Channel)
A CHO K1 cell line was stably transfected with the KCNMA1 (KCa1.1, U11058) and beta1 (KCNMB1) subunits of the human Maxi K channel (Ponte et al, Molecular Pharmacology 2012, 81(4), 567-577).
Cells were seeded in microtiter plates (black 384-well MTP, clear bottom) in a concentration of 10,000 cells/well in 25 μl medium and cultured for 20 to 24 hours at 37° C. and 5% CO2. The cell medium was removed, and the cells washed with Tyrode's solution. 25 μl of FMP-dye Blue-Tyrode's was added to each well and incubated at room temperature for 30 min.
(§3) For the membrane potential measurements, the prepared cell plate and substance plate were placed in the FLIPR Tetra (Molecular Devices). The baseline measurement of the fluorescence was stared for 20 sec (Exc. 510-545 nm, Emm. 565-625 nm). The cells were depolarized by addition of 25 μl of the diluted test compounds (final assay concentration of the KCl-Tyrode: 70 mM KCl, 2 mM CaCl2, 1 mM MgCl2, 0.8 mM NaH2PO4, 5 mM Glucose, 28 mM Hepes, pH 7.4, including the voltage sensitive dye). The complete measurement takes 150 s.
(§4) EC50 values were determined in triplicate utilizing compound dilution series. The data were determined at least in two independent tests. The data were proceeded by using the ActivityBase XE Runner software (IDBS) for curve fitting and calculation of the half-maximal effective concentration.

[4] = target: Caenorhabditis elegans slo-1a (Caenorhabditis elegans, UniProt Q95V25)
Experimental: In Vitro Assay: Agonistic Activity at C. elegans Slo-1a
A CHO K1 cell line stably transfected with the Caenorhabditis elegans slo-1a (accession no Y51A2D.19a) was established. Cells were seeded in microtiter plates (black 384-well MTP, clear bottom) in a concentration of 10,000 cells/well in 25 μl medium and cultured for 20 to 24 hours at 37° C. and 5% CO2. The cell medium was removed, and the cells washed with Tyrode's solution. 25 μl of FMP-dye Blue-Tyrode's was added to each well and incubated at room temperature for 30 min.
as §3, §4

A. viteae microfilaria = assay: In vitro assay: Acanthocheilonema viteae L1 (microfilaria) motility; settings: 72 h, read-out: EC50 value, Acanthocheilonema viteae L1, approximately 500 microfilaria, 3 days incubation, reduction in motility vs DMSO, duplicates
Experimental: In Vitro Assay: Acanthocheilonema viteae L1
Approximately 500 A. viteae microfilaria were added to a microtiter plate containing a nutrient medium and the test compound in DMSO at varying concentrations. After incubation for 3 days, activity was evaluated as reduction in motility as compared to DMSO as negative control. Compounds were tested in duplicates. Based on the concentration response curves EC50 values were calculated.

D. immitis microfilaria = assay: In vitro assay: Dirofilaria immitis L1 (microfilaria) motility; format: cell-based; settings: 72 h, read-out: EC50 value, Dirofilaria immitis L1, approximately 500 microfilaria, 3 days incubation, reduction in motility vs DMSO, duplicates
larvae L4 of D. immitis = assay: In vitro assay: Dirofilaria immitis L4 motility; format: cell-based; settings: 72 h, read-out: EC50 value, Dirofilaria immitis L4, 10 L4 larvae, 3 days incubation, reduction in motility vs DMSO, duplicates

human Maxi K channel (BK channel), KCNMA1 (KCa1.1) and beta1 (KCNMB1) subunits, sequence (Q12791 1-1178 isoform Q12791-5): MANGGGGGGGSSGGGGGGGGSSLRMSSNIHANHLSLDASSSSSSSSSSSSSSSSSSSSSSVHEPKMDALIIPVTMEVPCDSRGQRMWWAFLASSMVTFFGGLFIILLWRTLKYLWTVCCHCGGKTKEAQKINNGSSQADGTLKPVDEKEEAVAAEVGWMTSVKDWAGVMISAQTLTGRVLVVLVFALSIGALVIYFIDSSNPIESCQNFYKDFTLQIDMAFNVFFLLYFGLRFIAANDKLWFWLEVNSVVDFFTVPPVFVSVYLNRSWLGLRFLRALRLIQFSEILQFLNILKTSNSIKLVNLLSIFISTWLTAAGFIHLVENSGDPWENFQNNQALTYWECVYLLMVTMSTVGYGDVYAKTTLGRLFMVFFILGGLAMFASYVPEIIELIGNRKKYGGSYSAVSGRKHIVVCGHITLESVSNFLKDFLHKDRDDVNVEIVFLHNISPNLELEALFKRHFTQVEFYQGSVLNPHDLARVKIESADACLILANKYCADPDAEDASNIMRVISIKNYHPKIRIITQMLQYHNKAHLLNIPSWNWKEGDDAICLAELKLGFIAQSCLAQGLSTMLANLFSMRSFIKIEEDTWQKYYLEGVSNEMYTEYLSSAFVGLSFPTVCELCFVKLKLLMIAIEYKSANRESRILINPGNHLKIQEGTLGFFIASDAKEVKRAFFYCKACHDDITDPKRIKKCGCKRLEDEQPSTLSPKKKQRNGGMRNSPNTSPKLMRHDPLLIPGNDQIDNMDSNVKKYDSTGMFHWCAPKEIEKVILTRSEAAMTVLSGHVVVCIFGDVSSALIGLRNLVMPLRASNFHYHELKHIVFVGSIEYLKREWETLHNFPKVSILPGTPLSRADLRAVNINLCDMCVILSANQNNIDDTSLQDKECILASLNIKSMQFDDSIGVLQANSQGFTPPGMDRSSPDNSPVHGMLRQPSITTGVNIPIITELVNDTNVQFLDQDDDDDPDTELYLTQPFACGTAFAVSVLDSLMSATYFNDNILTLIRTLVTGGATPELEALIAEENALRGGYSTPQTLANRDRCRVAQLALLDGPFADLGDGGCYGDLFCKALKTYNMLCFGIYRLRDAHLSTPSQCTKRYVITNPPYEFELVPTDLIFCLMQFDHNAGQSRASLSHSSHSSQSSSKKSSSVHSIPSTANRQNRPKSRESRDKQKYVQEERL
human Maxi K channel (BK channel), KCNMA1 (KCa1.1) and beta1 (KCNMB1) subunits, sequence (Q16558 whole entry partner): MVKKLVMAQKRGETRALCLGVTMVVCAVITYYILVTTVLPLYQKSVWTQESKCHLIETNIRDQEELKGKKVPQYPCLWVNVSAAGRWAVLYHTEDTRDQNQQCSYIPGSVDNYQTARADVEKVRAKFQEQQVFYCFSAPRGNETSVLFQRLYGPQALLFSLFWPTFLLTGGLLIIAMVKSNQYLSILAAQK
Caenorhabditis elegans slo-1a, sequence (Q95V25 whole entry): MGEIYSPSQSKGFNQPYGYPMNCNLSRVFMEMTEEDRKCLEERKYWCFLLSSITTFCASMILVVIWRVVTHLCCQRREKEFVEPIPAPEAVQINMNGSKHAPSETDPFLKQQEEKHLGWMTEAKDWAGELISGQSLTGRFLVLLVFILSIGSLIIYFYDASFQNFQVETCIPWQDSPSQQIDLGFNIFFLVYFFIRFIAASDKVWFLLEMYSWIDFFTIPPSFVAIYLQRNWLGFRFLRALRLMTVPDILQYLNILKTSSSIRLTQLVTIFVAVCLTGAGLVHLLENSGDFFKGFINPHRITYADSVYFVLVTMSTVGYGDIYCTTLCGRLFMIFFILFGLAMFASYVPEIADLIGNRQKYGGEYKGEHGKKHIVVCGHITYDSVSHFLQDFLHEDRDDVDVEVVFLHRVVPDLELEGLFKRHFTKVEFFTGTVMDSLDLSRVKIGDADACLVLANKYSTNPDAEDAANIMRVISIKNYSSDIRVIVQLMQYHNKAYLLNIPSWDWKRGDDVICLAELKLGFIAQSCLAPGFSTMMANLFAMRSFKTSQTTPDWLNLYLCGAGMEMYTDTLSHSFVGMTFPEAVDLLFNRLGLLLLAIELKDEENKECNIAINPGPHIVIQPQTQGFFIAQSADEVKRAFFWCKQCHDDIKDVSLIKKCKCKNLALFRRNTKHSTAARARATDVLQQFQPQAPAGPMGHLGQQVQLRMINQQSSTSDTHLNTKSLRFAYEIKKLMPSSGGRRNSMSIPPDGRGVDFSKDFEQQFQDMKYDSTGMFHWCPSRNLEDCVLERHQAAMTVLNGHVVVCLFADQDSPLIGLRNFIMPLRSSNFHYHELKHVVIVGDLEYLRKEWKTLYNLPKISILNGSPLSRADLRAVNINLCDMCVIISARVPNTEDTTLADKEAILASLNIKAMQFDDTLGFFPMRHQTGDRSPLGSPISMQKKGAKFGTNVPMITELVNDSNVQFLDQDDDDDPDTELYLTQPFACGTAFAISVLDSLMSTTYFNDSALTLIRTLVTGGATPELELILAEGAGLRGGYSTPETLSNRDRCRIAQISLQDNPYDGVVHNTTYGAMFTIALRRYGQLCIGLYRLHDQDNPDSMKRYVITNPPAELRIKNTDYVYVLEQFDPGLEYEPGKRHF

SMILES | EC50 [3] [µM] | EC50 [4] [µM] | further results
O=C(Nc1cccc2ccccc12)c1cnc2c(ccn2-c2cccc(Cl)c2Cl)c1N1CCOCC1 [Compound 23] | > 30 |  | minimal effective concentration [1]: ≤ 50 µM; minimal effective concentration [2]: ≤ 50 µM
CN(C)c1c(C(=O)N[C@H]2CCCc3ccccc32)cnc2c1ccn2-c1cccc(Cl)c1Cl [Compound 14, (S)-1-(2,3-dichlorophenyl)-4-(dimethylamino)-N-(1,2,3,4-tetrahydronaphthalen-1-yl)-1H-pyrrolo[2,3-b]pyridine-5-carboxamide] | 10 to 30 | < 1 | 
O=C(NCc1ccccc1)c1cnc2c(ccn2-c2cc(Cl)cc(Cl)c2)c1N1CCOCC1 [Compound 11] | > 30 |  | minimal effective concentration [1]: ≤ 50 µM
CN(C)c1c(C(=O)NC2CCc3ccccc32)cnc2c1ccn2-c1cccc(Cl)c1Cl (stereo not shown) [Compound 2] | > 30 | < 1 | 
O=C(NCc1ccccc1)c1cnc2c(ccn2-c2cccc(Cl)c2Cl)c1N1CCOCC1 [Compound 12] | > 30 |  | 
CN(C)c1c(C(=O)N[C@@H]2CCOc3ccccc32)cnc2c1ccn2-c1cccc(Cl)c1Cl [Compound 18] | > 30 | < 10 | EC50 (A. viteae microfilaria): < 10 µM; minimal effective concentration [2]: ≤ 50 µM
CN(C)c1c(C(=O)Nc2cccc3ccccc23)cnc2c1ccn2-c1cc(Cl)cc(Cl)c1 [Compound 41] | > 30 |  | EC50 (A. viteae microfilaria): < 10 µM
CCOc1c(C(=O)N[C@H]2CCCc3ccccc32)cnc2c1ccn2-c1cc(Cl)cc(Cl)c1 [Compound 45] | > 30 |  | 
O=C(N[C@H]1CCc2ccccc21)c1cnc2c(ccn2-c2cc(Cl)cc(Cl)c2)c1N1CCOCC1 [Compound 37] | > 30 |  | EC50 (A. viteae microfilaria): < 10 µM; minimal effective concentration [1]: ≤ 50 µM; minimal effective concentration [2]: ≤ 50 µM; EC50 (D. immitis microfilaria): < 10 µM
CN(C)c1c(C(=O)N[C@H]2CCCc3ccccc32)cnc2c1ccn2-c1cc(Cl)cc(Cl)c1 [Compound 34] | > 30 | < 10 | 
COc1cccc(-n2ccc3c(N(C)C)c(C(=O)N[C@H]4CCOc5ccccc54)cnc32)c1 [Compound 31] | > 30 | < 1 | 
COc1c(C(=O)Nc2cccc3ccccc23)cnc2c1ccn2-c1cc(Cl)cc(Cl)c1 [Compound 50] | > 30 |  | EC50 (D. immitis microfilaria): < 10 µM
O=C(N[C@H]1CCOc2ccccc21)c1cnc2c(ccn2-c2cc(Cl)cc(Cl)c2)c1N1CCOCC1 [Compound 33] | > 30 |  | 
CN(C)c1c(C(=O)NC2CC(C)(C)Oc3ccccc32)cnc2c1ccn2-c1cccc(Cl)c1Cl (stereo not shown) [Compound 19] | > 30 | < 10 | 
O=C(Nc1cccc2ccccc12)c1cnc2c(ccn2-c2cc(Cl)cc(Cl)c2)c1N1CCOCC1 [Compound 42] | > 30 |  | 
CCOc1c(C(=O)N[C@H]2CCc3ccccc32)cnc2c1ccn2-c1cc(Cl)cc(Cl)c1 [Compound 44] | > 30 |  | 
CN(C)c1c(C(=O)NC2CCOc3ccccc32)cnc2c1ccn2-c1cc(Cl)cc(Cl)c1 (stereo not shown) [Compound 5] | > 30 | < 1 | minimal effective concentration [1]: ≤ 50 µM
CN(C)c1c(C(=O)NC2CCc3ccccc32)cnc2c1ccn2-c1cc(Cl)cc(Cl)c1 (stereo not shown) [Compound 1, 1-(3,5-dichlorophenyl)-N-(2,3-dihydro-1H-inden-1-yl)-4-(dimethylamino)-1H-pyrrolo[2,3-b]pyridine-5-carboxamide] | > 30 | < 1 | 
CC1(C)CC(NC(=O)c2cnc3c(ccn3-c3cccc(Cl)c3Cl)c2N2CCOCC2)c2ccccc2O1 (stereo not shown) [Compound 40] | > 30 | < 10 | EC50 (A. viteae microfilaria): < 10 µM; minimal effective concentration [1]: ≤ 50 µM
O=C(N[C@H]1CCOc2ccccc21)c1cnc2c(ccn2-c2cc(Cl)cc(Cl)c2)c1O [Compound 51] | > 30 |  | EC50 (A. viteae microfilaria): < 10 µM; EC50 (D. immitis microfilaria): < 10 µM
Cc1cccc(-n2ccc3c(N(C)C)c(C(=O)N[C@H]4CCOc5ccccc54)cnc32)c1C [Compound 29] | > 30 | < 1 | 
O=C(NC1CCOc2ccccc21)c1cnc2c(ccn2-c2cccc(Cl)c2Cl)c1N1CCOCC1 (stereo not shown) [Compound 8] | > 30 | < 1 | EC50 (larvae L4 of D. immitis): < 1 µM
CN(C)c1c(C(=O)N[C@H]2CCOc3ccccc32)cnc2c1ccn2-c1cccc(F)c1F [Compound 25] | > 30 | < 1 | 
